Data on ten compounds can be found in ChEMBL document CHEMBL2384918, “Identification of Selective Nanomolar Inhibitors of the Human Neuraminidase, NEU4” (ACS Med Chem Lett, 2013).

The target of one experiment is T1, Sialidase-3 (Homo sapiens, UniProt Q9UQ49).
T1 sequence (Q9UQ49 whole entry): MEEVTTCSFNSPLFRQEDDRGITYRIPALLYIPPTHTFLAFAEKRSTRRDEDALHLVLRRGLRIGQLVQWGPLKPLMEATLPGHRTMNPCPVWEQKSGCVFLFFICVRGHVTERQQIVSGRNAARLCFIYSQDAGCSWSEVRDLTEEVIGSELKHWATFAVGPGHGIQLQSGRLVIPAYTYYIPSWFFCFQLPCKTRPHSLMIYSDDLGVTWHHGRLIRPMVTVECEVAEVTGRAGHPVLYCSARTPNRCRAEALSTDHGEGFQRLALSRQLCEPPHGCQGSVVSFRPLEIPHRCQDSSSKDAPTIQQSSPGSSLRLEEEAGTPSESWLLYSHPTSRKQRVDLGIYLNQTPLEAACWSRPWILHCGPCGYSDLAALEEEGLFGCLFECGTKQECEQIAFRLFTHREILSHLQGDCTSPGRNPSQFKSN
Kind of experiment: Inhibition of human NEU3 using 4-MU-NANA as substrate preincubated for 15 mins before substrate addition measured after 30 mins by fluorescence plate reader analysis.

Experiment [1] concerns the target T2, Sialidase-4 (Homo sapiens, UniProt Q8WWR8).
T2 sequence (Q8WWR8 whole entry): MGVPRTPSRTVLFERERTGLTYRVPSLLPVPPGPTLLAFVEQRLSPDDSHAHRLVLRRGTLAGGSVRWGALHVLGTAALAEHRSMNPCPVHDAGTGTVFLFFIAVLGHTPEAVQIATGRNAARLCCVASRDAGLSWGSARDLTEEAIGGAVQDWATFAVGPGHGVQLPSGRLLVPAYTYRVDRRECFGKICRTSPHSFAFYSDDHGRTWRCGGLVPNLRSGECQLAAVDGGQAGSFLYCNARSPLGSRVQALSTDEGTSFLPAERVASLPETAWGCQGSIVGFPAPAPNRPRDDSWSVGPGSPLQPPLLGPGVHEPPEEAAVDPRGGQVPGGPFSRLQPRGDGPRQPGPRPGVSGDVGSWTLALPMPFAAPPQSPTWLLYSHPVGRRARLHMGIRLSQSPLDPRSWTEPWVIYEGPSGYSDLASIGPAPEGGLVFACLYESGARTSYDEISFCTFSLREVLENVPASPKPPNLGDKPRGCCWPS
Kind of experiment: Inhibition of human NEU4 using 4-MU-NANA as substrate preincubated for 15 mins before substrate addition measured after 30 mins by fluorescence plate reader analysis.

A further experiment addresses Sialidase-1 (Homo sapiens, UniProt Q99519). Kind of experiment: Inhibition of human NEU1 using 4-MU-NANA as substrate preincubated for 15 mins before substrate addition measured after 30 mins by fluorescence plate reader analysis.
The target in experiment [2] is T2, Sialidase-4. As to the kind of experiment: Inhibition of human NEU4 using 4-MU-NANA as substrate measured every 30 seconds for 60 mins by fluorescence plate reader analysis.

As a reminder, the IC50 is the midpoint of a concentration-inhibition curve. A higher IC50 goes with weaker potency. In general, Ki refers to a measure of affinity in units of concentration, obtained from inhibition or displacement. A higher Ki goes with lower affinity.

For the compound `CC(=O)N[C@H]1[C@H]([C@H](O)[C@H](O)Cn2cc(-c3ccccc3)nn2)OC(C(=O)O)=C[C@@H]1O`, the IC50 against Sialidase-3 is 4.6 µM; against Sialidase-4 [1] it was 2.3 µM; against Sialidase-1, over 200 µM.
For `CC(=O)N[C@H]1[C@H]([C@H](O)[C@H](O)Cn2cc(C(C)(C)O)nn2)OC(C(=O)O)=C[C@@H]1O`, the results for the IC50 at Sialidase-4 [1] and at Sialidase-1 were 4 µM and over 1000 µM, respectively.
With `CC(=O)N[C@H]1[C@H]([C@H](O)[C@H](O)CN=[N+]=[N-])OC(C(=O)O)=C[C@@H]1O`, the IC50 at Sialidase-3 amounted to 19.7 µM; at Sialidase-4 [1] it was 60 µM; at Sialidase-1 it was 620 µM.
As to `O=C(Cn1cc(-c2ccccc2)nn1)N[C@H]1[C@H]([C@H](O)[C@H](O)CO)OC(C(=O)O)=C[C@@H]1O`, the IC50 on Sialidase-3 was over 1000 µM; against Sialidase-4 [1] it was 250 µM; on Sialidase-1, over 1000 µM.
For `CC(=O)N[C@H]1[C@H]([C@H](O)[C@H](O)Cn2cc(CCCO)nn2)OC(C(=O)O)=C[C@@H]1O`, the figures for the IC50 at Sialidase-3, on Sialidase-4 [1] and on Sialidase-1 were 39 µM, 2.1 µM and 660 µM, respectively.
As to `CC(=O)N[C@H]1[C@H]([C@H](O)[C@H](O)Cn2cc(CCO)nn2)OC(C(=O)O)=C[C@@H]1O`, on Sialidase-4 [2], affinity was put at a Ki of 0.06 µM. Further, the figures for the IC50 at Sialidase-3, against Sialidase-4 [1] and against Sialidase-1 were 38 µM, 0.81 µM and over 1000 µM, respectively.
Consider `[N-]=[N+]=NCC(=O)N[C@H]1[C@H]([C@H](O)[C@H](O)CO)OC(C(=O)O)=C[C@@H]1O`, for which the IC50 against Sialidase-3 is 4.7 µM; against Sialidase-4 [1] it was 4.5 µM; on Sialidase-1 it was 29 µM.
As for `CC(=O)N[C@H]1[C@H]([C@H](O)[C@H](O)Cn2cc(COc3ccccc3)nn2)OC(C(=O)O)=C[C@@H]1O`, the IC50 on Sialidase-3 was 5.5 µM; at Sialidase-4 [1], 1.7 µM; at Sialidase-1, over 1000 µM.
On to `CCOc1cn(C[C@@H](O)[C@@H](O)[C@@H]2OC(C(=O)O)=C[C@H](O)[C@H]2NC(C)=O)nn1`, for which the IC50 against Sialidase-3 was 90 µM; against Sialidase-4 [1] it was 3.6 µM; at Sialidase-1, 170 µM.
Turning to `CC(=O)N[C@H]1[C@H]([C@H](O)[C@H](O)Cn2cc(CO)nn2)OC(C(=O)O)=C[C@@H]1O`, the IC50 at Sialidase-3 was 80 µM; against Sialidase-1, over 1000 µM.
